Test results as given in patent US11912693B2, “Compounds for modulating S1P1 activity and methods of using the same” (TREVENA, INC., priority 2017, dated 2024).

Key:
[1] = molecular target: T1, human sphingosine-1-phosphate receptor 1 (S1P1) (Homo sapiens (Human), UniProt P21453); assay: β-Arrestin2 recruitment assay (PathHunter), S1P1 CHO-K1 cells; format: cell-based; settings: for hS1P1 B-arrestin2 pEC50 / EC50: β-arrestin2 recruitment, S1P1 CHO-K1 cells; for Emax: CHO-K1, efficacy (SPAN) normalized to fingolimod, read-out: hS1P1 B-arrestin2 SPAN; for EC50: read-out: hS1P1 B-arrestin2 pEC50 (converted)
Procedure, shortened: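 Enzyme-fragment complementation read-out: agonist-driven β-arrestin2 binding to ProLink-tagged human S1P1 in stable CHO-K1 cells restores β-galactosidase, measured 1 h at room temperature after a 60 min 37° C. compound incubation. Potency as pEC50, efficacy relative to fingolimod (SPAN).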
Target sequence in this assay (P21453 whole entry, looked up, the tested form may be a part): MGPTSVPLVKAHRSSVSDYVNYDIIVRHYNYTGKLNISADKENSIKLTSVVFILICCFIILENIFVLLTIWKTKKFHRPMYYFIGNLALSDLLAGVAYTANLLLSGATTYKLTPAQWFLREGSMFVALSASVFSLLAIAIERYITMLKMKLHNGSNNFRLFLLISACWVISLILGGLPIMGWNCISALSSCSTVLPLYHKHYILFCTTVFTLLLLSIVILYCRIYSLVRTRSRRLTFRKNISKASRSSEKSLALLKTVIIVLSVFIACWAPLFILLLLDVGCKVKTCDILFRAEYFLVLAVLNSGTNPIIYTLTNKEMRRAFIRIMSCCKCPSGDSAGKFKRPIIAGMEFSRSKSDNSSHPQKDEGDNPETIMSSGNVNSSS
Target sequence in this assay (P32121 whole entry partner, looked up, the tested form may be a part): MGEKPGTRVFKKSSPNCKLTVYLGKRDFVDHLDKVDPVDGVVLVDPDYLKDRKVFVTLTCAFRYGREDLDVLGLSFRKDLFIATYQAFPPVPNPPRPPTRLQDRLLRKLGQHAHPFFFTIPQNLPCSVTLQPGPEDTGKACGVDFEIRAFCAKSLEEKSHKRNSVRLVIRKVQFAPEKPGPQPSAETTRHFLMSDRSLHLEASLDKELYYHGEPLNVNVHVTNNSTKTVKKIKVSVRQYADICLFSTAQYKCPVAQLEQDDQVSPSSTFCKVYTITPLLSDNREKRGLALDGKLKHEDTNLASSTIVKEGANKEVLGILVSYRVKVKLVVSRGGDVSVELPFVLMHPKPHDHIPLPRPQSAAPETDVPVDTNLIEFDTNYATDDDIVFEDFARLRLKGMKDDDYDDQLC

[2] = molecular target: T1, human sphingosine-1-phosphate receptor 1 (S1P1); assay: Inhibition of cAMP production (HTRF cAMP HiRange), S1P1 CHO-K1 cells; format: cell-based; settings: for hS1P1 cAMP pEC50 / EC50: inhibition of cAMP production, S1P1 CHO-K1 cells; for Emax: CHO-K1, efficacy (SPAN) normalized to fingolimod, read-out: hS1P1 cAMP SPAN; for EC50: read-out: hS1P1 cAMP pEC50 (converted)
Procedure, shortened: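 CHO-K1 cells stably co-expressing human S1P1 (C-terminal Prolink tag) and EA-β-arrestin2 were grown in AssayComplete Media 6 at 37° C. and 5% CO2, plated, and incubated overnight. Agonist-driven inhibition of intracellular cAMP was read by TR-FRET with the HTRF cAMP HiRange kit on a PheraStar reader. Potency is pEC50, and efficacy (SPAN) is normalized to fingolimod.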
Target sequence in this assay (P21453 whole entry, looked up, the tested form may be a part): as the sequence (P21453 whole entry, looked up, the tested form may be a part) above

Structure (SMILES)	hS1P1 B-arrestin2 pEC50 [1]	hS1P1 cAMP pEC50 [2]	Emax [1]	EC50 [1]	Emax [2]	EC50 [2]
N#Cc1cc(-c2nnc(-c3ccc4[nH]c(=O)oc4c3)o2)ccc1NCC1CC1 [Compound 486, 2-[(cyclopropylmethyl)amino]-5-[5-(2-oxo-2,3-dihydro-1,3-benzoxazol-6-yl)-1,3,4-oxadiazol-2-yl]benzonitrile]	<5	>6.5	–	–	–	–
N#Cc1cc(-c2nnc(-c3ccc4[nH]c(=O)oc4c3)o2)ccc1NCCF [Compound 487, 2-[(2-fluoroethyl)amino]-5-[5-(2-oxo-2,3-dihydro-1,3-benzoxazol-6-yl)-1,3,4-oxadiazol-2-yl]benzonitrile]	>5	<6.5	–	–	–	–
N#Cc1cc(-c2nnc(-c3ccc4[nH]c(=O)oc4c3)o2)ccc1NCC(F)F [Compound 488, 2-[(2,2-difluoroethyl)amino]-5-[5-(2-oxo-2,3-dihydro-1,3-benzoxazol-6-yl)-1,3,4-oxadiazol-2-yl]benzonitrile]	>5	>6.5	–	–	–	–
Cc1cc(-c2noc(-c3ccc4c(c3)nnn4C(C)C)n2)c(C)o1 [Compound 490, 5-[3-(2,5-dimethylfuran-3-yl)-1,2,4-oxadiazol-5-yl]-1-(propan-2-yl)-1H-1,2,3-benzotriazole]	–	–	> 75%	< 10 µM	> 75%	< 0.316 µM
Cc1occc1-c1noc(-c2ccc3c(c2)nnn3CC(C)(C)O)n1 [Compound 492, 2-methyl-1-{5-[3-(2-methylfuran-3-yl)-1,2,4-oxadiazol-5-yl]-1H-1,2,3-benzotriazol-1-yl}propan-2-ol]	<5	<6.5	> 75%	–	> 75%	–
Cc1cc(-c2noc(-c3ccc4c(c3)nnn4CC(C)(C)O)n2)c(C)o1 [Compound 493, 1-{5-[3-(2,5-dimethylfuran-3-yl)-1,2,4-oxadiazol-5-yl]-1H-1,2,3-benzotriazol-1-yl}-2-methylpropan-2-ol]	–	–	> 75%	> 10 µM	> 75%	> 0.316 µM
COCC1(COC)CC(=O)c2cc(-c3nc(-c4ccncc4)no3)ccc2O1 [Compound 494, 2,2-bis(methoxymethyl)-6-[3-(pyridin-4-yl)-1,2,4-oxadiazol-5-yl]-3,4-dihydro-2H-1-benzopyran-4-one]	>5	<6.5	–	–	–	–
CCC1(CC)CC(=O)c2cc(-c3nc(-c4ccoc4)no3)ccc2O1 [Compound 495, 2,2-diethyl-6-(3-(furan-3-yl)-1,2,4-oxadiazol-5-yl)chroman-4-one]	>5	>6.5	–	–	–	–
CC(C)n1nnc2cc(-c3nc(-c4cccnc4Cl)no3)ccc21 [Compound 499, 5-[3-(2-chloropyridin-3-yl)-1,2,4-oxadiazol-5-yl]-1-(propan-2-yl)-1H-1,2,3-benzotriazole]	–	–	> 75%	< 10 µM	> 75%	< 0.316 µM
CCC1(CC)CC(=O)c2cc(-c3nc(-c4ccc5nonc5c4)no3)ccc2O1 [Compound 500, 6-[3-(2,1,3-benzoxadiazol-5-yl)-1,2,4-oxadiazol-5-yl]-2,2-diethyl-3,4-dihydro-2H-1-benzopyran-4-one]	<5	<6.5	–	–	–	–
CC(C)(O)Cn1nnc2cc(-c3nc(-c4ccc5nc[nH]c5c4)no3)ccc21 [Compound 501, 1-{5-[3-(1H-1,3-benzodiazol-6-yl)-1,2,4-oxadiazol-5-yl]-1H-1,2,3-benzotriazol-1-yl}-2-methylpropan-2-ol]	<5	<6.5	> 75%	–	< 75%	–
CC(C)n1nnc2cc(-c3nc4ccncc4o3)ccc21 [Compound 503, 2-(1-isopropyl-1H-benzo[d][1,2,3]triazol-5-yl)oxazolo[5,4-c]pyridine]	<5	<6.5	> 75%	–	> 75%	–
CC(C)Cn1nnc2cc(-c3nc4ccncc4o3)ccc21 [Compound 504, 2-(1-isobutyl-1H-benzo[d][1,2,3]triazol-5-yl)oxazolo[5,4-c]pyridine]	<5	<6.5	< 75%	–	> 75%	–

Other lines, results leading:

hS1P1 B-arrestin2 pEC50 [1]	hS1P1 cAMP pEC50 [2]	Emax [1]	EC50 [1]	Emax [2]	EC50 [2]	Structure (SMILES)
<5	<6.5	–	–	–	–	Cc1ccccc1-c1nc(-c2ccc3c(c2)nnn3CC(C)(C)CO)no1 [Compound 505, 2,2-dimethyl-3-(5-(5-(o-tolyl)-1,2,4-oxadiazol-3-yl)-1H-benzo[d][1,2,3]triazol-1-yl)propan-1-ol]
>5	>6.5	< 75%	–	< 75%	–	CC(C)Oc1ccc(-c2ccc(-c3ccc4c(c3)nnn4C(C)C)cc2)cc1C#N [Compound 506, 4-isopropoxy-4′-(1-isopropyl-1H-benzo[d][1,2,3]triazol-5-yl)-[1,1′-biphenyl]-3-carbonitrile]
<5	>6.5	< 75%	–	< 75%	–	CC(C)Nc1ccc(-c2ccc(-c3ccc4c(c3)nnn4C(C)C)cc2)cc1C#N [Compound 507, 4′-(1-isopropyl-1H-benzo[d][1,2,3]triazol-5-yl)-4-(isopropylamino)-[1,1′-biphenyl]-3-carbonitrile]
<5	<6.5	< 75%	–	> 75%	–	C=CCNc1ccc(-c2ccc(-c3ccc4c(c3)nnn4C(C)C)cc2)cc1C#N [Compound 508, 4-(allylamino)-4′-(1-isopropyl-1H-benzo[d][1,2,3]triazol-5-yl)-[1,1′-biphenyl]-3-carbonitrile]
<5	<6.5	–	–	–	–	CCC1(CC)CC(=O)c2cc(-c3ncc(-c4cccnc4)cn3)ccc2O1 [Compound 509, 2,2-diethyl-6-(5-(pyridin-3-yl)pyrimidin-2-yl)chroman-4-one]
>5	>6.5	–	–	–	–	CCC1(CC)CC(=O)c2cc(-c3ncc(-c4ccncc4)cn3)ccc2O1 [Compound 510, 2,2-diethyl-6-(5-(pyridin-4-yl)pyrimidin-2-yl)chroman-4-one]
>5	>6.5	> 75%	–	< 75%	–	CC(C)n1nnc2cc(-c3nc(-c4ccc5nc[nH]c5c4)no3)ccc21 [Compound 511, 5-[3-(1H-1,3-benzodiazol-6-yl)-1,2,4-oxadiazol-5-yl]-1-(propan-2-yl)-1H-1,2,3-benzotriazole]
>5	>6.5	–	–	–	–	CCC1(CC)CC(=O)c2cc(-c3nc(-c4ccnc(NC(C)=O)c4)no3)ccc2O1 [Compound 512, N-(4-(5-(2,2-diethyl-4-oxochroman-6-yl)-1,2,4-oxadiazol-3-yl)pyridin-2-yl)acetamide]
>5	>6.5	> 75%	–	> 75%	–	COc1cccc2nc(-c3ccc4c(c3)nnn4C(C)C)oc12 [Compound 515, 2-(1-isopropyl-1H-benzo[d][1,2,3]triazol-5-yl)-7-methoxybenzo[d]oxazole]
>5	<6.5	< 75%	–	< 75%	–	Cc1ccccc1-c1c[nH]c(-c2ccc3c(c2)nnn3C(C)C)c1 [Compound 516, 5-[4-(2-methylphenyl)-1H-pyrrol-2-yl]-1-(propan-2-yl)-1H-1,2,3-benzotriazole]
>5	<6.5	< 75%	–	< 75%	–	Cc1ccccc1-c1cc(-c2ccc3c(c2)nnn3C(C)C)n(C)c1 [Compound 517, 5-[1-methyl-4-(2-methylphenyl)-1H-pyrrol-2-yl]-1-(propan-2-yl)-1H-1,2,3-benzotriazole]
<5	<6.5	–	–	–	–	Cc1cn(C)nc1-c1noc(-c2ccc3c(c2)nnn3CC(C)(C)O)n1 [Compound 518, 1-{5-[3-(1,4-dimethyl-1H-pyrazol-3-yl)-1,2,4-oxadiazol-5-yl]-1H-1,2,3-benzotriazol-1-yl}-2-methylpropan-2-ol]
<5	<6.5	–	–	–	–	CCC1(CC)CC(=O)c2cc(-c3nc(-c4ccc5ncccc5c4)no3)ccc2O1 [Compound 521, 2,2-diethyl-6-(3-(quinolin-6-yl)-1,2,4-oxadiazol-5-yl)chroman-4-one]
<5	<6.5	–	–	–	–	CCC1(CC)CC(=O)c2cc(-c3nc(-c4ccc5cnccc5c4)no3)ccc2O1 [Compound 522, 2,2-diethyl-6-(3-(isoquinolin-6-yl)-1,2,4-oxadiazol-5-yl)chroman-4-one]
<5	<6.5	–	–	–	–	COc1ccc(-c2nc(-c3ccc4c(c3)nnn4CC(C)(C)CO)no2)c(C)c1 [Compound 523, 3-(5-(5-(4-methoxy-2-methylphenyl)-1,2,4-oxadiazol-3-yl)-1H-benzo[d][1,2,3]triazol-1-yl)-2,2-dimethylpropan-1-ol]
>5	>6.5	–	–	–	–	Cc1ccsc1-c1nc(-c2ccc3c(c2)nnn3CC(C)(C)CO)no1 [Compound 524, 2,2-dimethyl-3-(5-(5-(3-methylthiophen-2-yl)-1,2,4-oxadiazol-3-yl)-1H-benzo[d][1,2,3]triazol-1-yl)propan-1-ol]
